Data taken from PubChem BioAssay AID1963980 (Molecular Pharmacology Branch, DTP, NCI, 2024).

System: 475296-252-R-J1-PDC spheroid viability
Test: Anticancer human tumor 475296-252-R-J1-PDC patient-derived rectal carcinoma cell line growth inhibition [PI3K]
Settings: spheroids with HUVEC and MSC; for IC50: curve of first compound; for viability, T/C: stronger effect = lower value
Excerpt: Combinatorial screen of targeted agents with the PI3K inhibitors inavolisib, alpelisib, duvelisib, and copanlisib in multi-cell type tumor spheroids
A high-throughput screen of multi-cell type tumor spheroids was designed to identify active combinations of targeted small molecules and PI3K pathway inhibitors. Complex spheroids include a stromal component modeled by human endothelial cells (HUVEC) and fibroblasts modeled by human mesenchymal stem cells (MSCs). The concentration ranges selected for each drug and investigational agent were based upon clinically achievable concentrations if the clinical Cmax of the agent was known.
Compounds. The drugs and investigational agents: inavolisib (NSC800729), alpelisib (NSC765974), duvelisib (NSC772469), copanlisib (NSC816437), ipatasertib (NSC767898), afuresertib (NSC778305), talazoparib (NSC767125), sapanisertib (NSC764658), selumetinib (NSC741078), tovorafenib (DAY101, NSC766906), vemurafenib (NSC761431), ravoxertinib (NSC781343), sotorasib (NSC818433), MRTX1133 (NSC 836407), abemaciclib (NSC 768073), palbociclib (NSC758247), venetoclax (NSC 766270), SY5609 (NSC837396), enzalutamide (NSC755605), and darolutamide (NSC825331), were obtained from the National Cancer Institute (NCI) Developmental Therapeutics Program Chemical Repository. The FDA-approved anticancer drug set is available from the NCI Developmental Therapeutics Program. […] The stock solutions were prepared in dimethyl sulfoxide (DMSO, Sigma-Aldrich, St. Louis, MO, cat. D2650) at 800-fold the tested concentration and stored at -70 degrees C prior to their use. All drugs and investigational agents were tested over a range starting from a high concentration at or near the clinical Cmax and decreasing in half-log increments. If the clinical Cmax for an agent had not been determined, the highest concentration tested was 10 microM.
Cell Culture. All cells were maintained in an incubator at 37 degrees C and 5% CO2 with 95% humidity. The PDC lines were cultured according to standard operating procedures established by the NCI PDMR (https://pdmr.cancer.gov/sops/default.htm). All PDCs were thawed and cultured in Matrigel-coated flasks prepared with a working solution of 1X Ham's F-12 nutrient mix, without supplementation (Invitrogen, Waltham, MA, cat. 11765054), 100 U/mL penicillin-streptomycin (Invitrogen, cat. 15140122), and 2.5% Matrigel (Corning Inc., Corning, NY, cat. 354248) for the first three passages. The 354836-022-R-J1-PDC, 475296-252-R-J1-PDC, and 997726-040-R-J2-PDC lines were cultured in 6A media, which includes advanced DMEM/F-12 (Thermo Fisher Scientific, cat. 12634028), 10 mM HEPES (Thermo Fisher Scientific, cat. 15630080), 1X GlutaMAX supplement (Thermo Fisher Scientific, cat. 35050061), 0.1 mg/mL primocin (InvivoGen, San Diego, CA, cat. ant-pm-2), 10% defined fetal bovine serum, heat inactivated (HyClone Laboratories Inc., Logan, UT, cat. SH30070.03HI), 50% L-WRN conditioned media (ATCC, cat. CRL-3276), 1.25 mM N-Acetyl-L-cysteine (Sigma-Aldrich, cat. A9165), 10 mM nicotinamide (Sigma-Aldrich, cat. N0636), 1X B-27 supplement (Thermo Fisher Scientific, cat. 17504044), 1X N-2 supplement (Thermo Fisher Scientific, cat. 17502048), and 10 microM Y-27632 dihydrochloride (Tocris Bioscience, Bristol, United Kingdom, cat. 1254). The 624824-186-R-J2-PDC line was cultured in 6C/Colon 1B media, which includes all 6A media components plus 50 ng/mL human EGF recombinant protein (Thermo Fisher Scientific, cat. PHG0311). […]
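Further: spheroids exposed to agents for seven days before readout.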

Compound: Cn1ncnc1[C@H]1c2n[nH]c(=O)c3cc(F)cc(c23)N[C@@H]1c1ccc(F)cc1 + COc1c(OCCCN2CCOCC2)ccc2c3n(c(=NC(=O)c4cnc(N)nc4)nc12)CCN3
- IC50 (second compound 0.00316 µM): > 100 nM
- IC50 (second compound 0.01 µM): > 100 nM
- IC50 (second compound 0.0316 µM): > 100 nM
- IC50 (second compound 0.1 µM): > 100 nM
- IC50 (second compound 0.316 µM): > 100 nM
- IC50 (second compound 1 µM): > 100 nM
- viability, T/C (second compound 0.00316 µM, first compound 0.000316 µM): 91.6%
- viability, T/C (second compound 0.00316 µM, first compound 0.001 µM): 99%
- viability, T/C (second compound 0.00316 µM, first compound 0.00316 µM): 115%
- viability, T/C (second compound 0.00316 µM, first compound 0.01 µM): 99.5%
- viability, T/C (second compound 0.00316 µM, first compound 0.0316 µM): 116%
- viability, T/C (second compound 0.00316 µM, first compound 0.1 µM): 109%
- viability, T/C (second compound 0.01 µM, first compound 0.000316 µM): 95.5%
- viability, T/C (second compound 0.01 µM, first compound 0.001 µM): 104%
- viability, T/C (second compound 0.01 µM, first compound 0.00316 µM): 108%
- viability, T/C (second compound 0.01 µM, first compound 0.01 µM): 99.4%
- viability, T/C (second compound 0.01 µM, first compound 0.0316 µM): 116%
- viability, T/C (second compound 0.01 µM, first compound 0.1 µM): 94.7%
- viability, T/C (second compound 0.0316 µM, first compound 0.000316 µM): 93.1%
- viability, T/C (second compound 0.0316 µM, first compound 0.001 µM): 98%
- viability, T/C (second compound 0.0316 µM, first compound 0.00316 µM): 106%
- viability, T/C (second compound 0.0316 µM, first compound 0.01 µM): 99.2%
- viability, T/C (second compound 0.0316 µM, first compound 0.0316 µM): 94.2%
- viability, T/C (second compound 0.0316 µM, first compound 0.1 µM): 93.3%
- viability, T/C (second compound 0.1 µM, first compound 0.000316 µM): 85.3%
- viability, T/C (second compound 0.1 µM, first compound 0.001 µM): 99.1%
- viability, T/C (second compound 0.1 µM, first compound 0.00316 µM): 94.8%
- viability, T/C (second compound 0.1 µM, first compound 0.01 µM): 75.1%
- viability, T/C (second compound 0.1 µM, first compound 0.0316 µM): 85%
- viability, T/C (second compound 0.1 µM, first compound 0.1 µM): 75.8%
- viability, T/C (second compound 0.316 µM, first compound 0.000316 µM): 82.4%
- viability, T/C (second compound 0.316 µM, first compound 0.001 µM): 73.1%
- viability, T/C (second compound 0.316 µM, first compound 0.00316 µM): 71.7%
- viability, T/C (second compound 0.316 µM, first compound 0.01 µM): 86.1%
- viability, T/C (second compound 0.316 µM, first compound 0.0316 µM): 67.8%
- viability, T/C (second compound 0.316 µM, first compound 0.1 µM): 75.7%
- viability, T/C (second compound 1 µM, first compound 0.000316 µM): 65.4%
- viability, T/C (second compound 1 µM, first compound 0.001 µM): 65%
- viability, T/C (second compound 1 µM, first compound 0.00316 µM): 63.5%
- viability, T/C (second compound 1 µM, first compound 0.01 µM): 70.8%
- viability, T/C (second compound 1 µM, first compound 0.0316 µM): 70.8%
- viability, T/C (second compound 1 µM, first compound 0.1 µM): 55.4%
